From ChEMBL document CHEMBL3414511, “Synthesis of a novel class of substituted benzothiophene or benzofuran derivatives as BMP-2 up-regulators and evaluation of the BMP-2-up-regulating effects in vitro and the effects on glucocorticoid-induced osteoporosis in rats” (Eur J Med Chem, 2015)
Active and inactive are the calls of the source. The calls are words filed in the database; no cut-off is given here.

Assays:
[1] = Upregulation of BMP-2 expression in mouse MC3T3-E1 cells at 4 uM after 24 hrs by luciferase reporter gene assay relative to control; format: functional, cell-based
Rattus norvegicus [2] = test: Toxicity in glucocorticoid-induced Wistar rat osteoporosis model assessed as effect on blood urea nitrogen level at 30 mg/kg/day, po administered six times a week for 3 months; format: organism-based; parameters: route oral; details: in vivo
Rattus norvegicus [3] = test: Toxicity in glucocorticoid-induced Wistar rat osteoporosis model assessed as effect on platelets at 30 mg/kg/day, po administered six times a week for 3 months; format: organism-based; parameters: route oral; details: in vivo
Rattus norvegicus [4] = test: Antiosteoporotic activity in glucocorticoid-induced Wistar rat osteoporosis model assessed as increase in trabecula area at 30 mg/kg/day, po administered six times a week for 3 months by toluidine blue staining-based light microscopic analysis relative to dexamethasone; format: functional, organism-based
Rattus norvegicus [5] = test: Toxicity in glucocorticoid-induced Wistar rat osteoporosis model assessed as effect on red blood cell distribution width at 30 mg/kg/day, po administered six times a week for 3 months; format: organism-based; parameters: route oral; details: in vivo
Rattus norvegicus [6] = test: Antiosteoporotic activity in glucocorticoid-induced Wistar rat osteoporosis model assessed as increase in trabecula thickness at 30 mg/kg/day, po administered six times a week for 3 months by toluidine blue staining-based light microscopic analysis relative to dexamethasone; format: functional, organism-based
Rattus norvegicus [7] = test: Toxicity in glucocorticoid-induced Wistar rat osteoporosis model assessed as aspartate transaminase level at 30 mg/kg/day, po administered six times a week for 3 months (reference value: 177.55 +/- 116.98 U/L); format: organism-based; parameters: route oral; details: in vivo
Rattus norvegicus [8] = test: Toxicity in glucocorticoid-induced Wistar rat osteoporosis model assessed as effect on total protein level at 30 mg/kg/day, po administered six times a week for 3 months; format: organism-based; parameters: route oral; details: in vivo
Rattus norvegicus [9] = test: Toxicity in glucocorticoid-induced Wistar rat osteoporosis model assessed as neutrophilic granulocytes level at 30 mg/kg/day, po administered six times a week for 3 months (reference value: 31.95 +/- 8.33%); format: organism-based; parameters: route oral; details: in vivo
Rattus norvegicus [10] = test: Toxicity in glucocorticoid-induced Wistar rat osteoporosis model assessed as lymph level at 30 mg/kg/day, po administered six times a week for 3 months (reference value: 50.35 +/- 12.96%); format: organism-based; parameters: route oral; details: in vivo
Rattus norvegicus [11] = test: Toxicity in glucocorticoid-induced Wistar rat osteoporosis model assessed as effect on red blood cells at 30 mg/kg/day, po administered six times a week for 3 months; format: organism-based; parameters: route oral; details: in vivo
Rattus norvegicus [12] = test: Toxicity in glucocorticoid-induced Wistar rat osteoporosis model assessed as effect on glucose level at 30 mg/kg/day, po administered six times a week for 3 months; format: organism-based; parameters: route oral; details: in vivo
Rattus norvegicus [13] = test: Antiosteoporotic activity in glucocorticoid-induced Wistar rat osteoporosis model assessed as increase in trabecula connectivity at 30 mg/kg/day, po administered six times a week for 3 months by toluidine blue staining-based light microscopic analysis relative to dexamethasone; format: functional, organism-based
Rattus norvegicus [14] = test: Toxicity in glucocorticoid-induced Wistar rat osteoporosis model assessed as effect on creatinine level at 30 mg/kg/day, po administered six times a week for 3 months; format: organism-based; parameters: route oral; details: in vivo
Rattus norvegicus [15] = test: Toxicity in glucocorticoid-induced Wistar rat osteoporosis model assessed as triglycerides level at 30 mg/kg/day, po administered six times a week for 3 months (reference value: 1.13 +/- 0.69 mmol/L); format: organism-based; parameters: route oral; details: in vivo
Rattus norvegicus [16] = test: Antiosteoporotic activity in glucocorticoid-induced Wistar rat osteoporosis model assessed as trabecula resorption surface at 30 mg/kg/day, po administered six times a week for 3 months by fluorescence assay (reference value: 7.22 +/- 2.04%); format: functional
Rattus norvegicus [17] = test: Toxicity in glucocorticoid-induced Wistar rat osteoporosis model assessed as effect on albumin level at 30 mg/kg/day, po administered six times a week for 3 months; format: organism-based; parameters: route oral; details: in vivo
Rattus norvegicus [18] = test: Toxicity in glucocorticoid-induced Wistar rat osteoporosis model assessed as effect on mean corpuscular volume at 30 mg/kg/day, po administered six times a week for 3 months; format: organism-based; parameters: route oral; details: in vivo
Rattus norvegicus [19] = test: Toxicity in glucocorticoid-induced Wistar rat osteoporosis model assessed as effect on total bilirubin level at 30 mg/kg/day, po administered six times a week for 3 months; format: organism-based; parameters: route oral; details: in vivo
Rattus norvegicus [20] = test: Antiosteoporotic activity in glucocorticoid-induced Wistar rat osteoporosis model assessed as trabecular bone volume at 30 mg/kg/day, po administered six times a week for 3 months by fluorescence assay (reference value: 33.09 +/- 5.15%); format: functional, Trabecula
Rattus norvegicus [21] = test: Antiosteoporotic activity in glucocorticoid-induced Wistar rat osteoporosis model assessed as increase in trabecula number at 30 mg/kg/day, po administered six times a week for 3 months by toluidine blue staining-based light microscopic analysis relative to dexamethasone; format: functional, organism-based
Rattus norvegicus [22] = test: Antiosteoporotic activity in glucocorticoid-induced Wistar rat osteoporosis model assessed as mineral apposition rate at 30 mg/kg/day, po administered six times a week for 3 months by fluorescence assay (reference value: 1.06 +/- 0.27 micrometer/day); format: functional
Rattus norvegicus [23] = test: Antiosteoporotic activity in glucocorticoid-induced Wistar rat osteoporosis model assessed as trabecula formation surface at 30 mg/kg/day, po administered six times a week for 3 months by fluorescence assay (reference value: 7.82 +/- 2.46%); format: functional
Rattus norvegicus [24] = test: Toxicity in glucocorticoid-induced Wistar rat osteoporosis model assessed as effect on hemoglobin at 30 mg/kg/day, po administered six times a week for 3 months; format: organism-based; parameters: route oral; details: in vivo
Rattus norvegicus [25] = test: Toxicity in glucocorticoid-induced Wistar rat osteoporosis model assessed as effect on mean corpuscular hemoglobin concentration at 30 mg/kg/day, po administered six times a week for 3 months; format: organism-based; parameters: route oral; details: in vivo
Rattus norvegicus [26] = test: Toxicity in glucocorticoid-induced Wistar rat osteoporosis model assessed as alanine transaminase level at 30 mg/kg/day, po administered six times a week for 3 months (reference value: 43.73 +/- 36.21 U/L); format: organism-based; parameters: route oral; details: in vivo
Rattus norvegicus [27] = test: Toxicity in glucocorticoid-induced Wistar rat osteoporosis model assessed as effect on red blood cell specific volume at 30 mg/kg/day, po administered six times a week for 3 months; format: organism-based; parameters: route oral; details: in vivo
Rattus norvegicus [28] = test: Toxicity in glucocorticoid-induced Wistar rat osteoporosis model assessed as white blood cells at 30 mg/kg/day, po administered six times a week for 3 months (reference value: 6.28 +/- 2.78 x 10^9/L); format: organism-based; parameters: route oral; details: in vivo
Mus musculus [29] = test: Acute toxicity in Kunming mouse assessed as shiny fur at 500 mg/kg, po administered for 3 days measured during compound dosing and following 14 days; format: organism-based; parameters: dose 500 mg/kg, route oral; details: in vivo, 336 h
[30] = Acute toxicity in po dosed Kunming mouse administered for 3 days measured during compound dosing and following 14 days; format: organism-based; details: in vivo
Mus musculus [31] = test: Acute toxicity in Kunming mouse assessed as behavioral changes at 500 mg/kg, po administered for 3 days measured during compound dosing and following 14 days; format: organism-based; parameters: dose 500 mg/kg, route oral; details: in vivo, 336 h

CCOC(=O)c1ccc2cc(C(=O)/C=C/c3ccccc3Cl)sc2c1
Activity [1]: 39.1%

CC(=O)c1cc2ccccc2s1
Activity (Rattus norvegicus [2]): Non-toxic | Activity (Rattus norvegicus [3]): Non-toxic | Activity (Rattus norvegicus [4]): Active | Activity (Rattus norvegicus [5]): Non-toxic | Activity (Rattus norvegicus [6]): Active | Activity (Rattus norvegicus [7]): 129.83 U/L | Activity (Rattus norvegicus [8]): Non-toxic | Activity (Rattus norvegicus [9]): 43.25% | Activity (Rattus norvegicus [10]): 39.85% | Activity (Rattus norvegicus [11]): Non-toxic | Activity (Rattus norvegicus [12]): Non-toxic | Activity (Rattus norvegicus [13]): Active | Activity (Rattus norvegicus [14]): Non-toxic | Activity (Rattus norvegicus [15]): 0.46 mmol/L | Activity (Rattus norvegicus [16]): 8.36% | Activity (Rattus norvegicus [17]): Non-toxic | Activity (Rattus norvegicus [18]): Non-toxic | Activity (Rattus norvegicus [19]): Non-toxic | Activity (Rattus norvegicus [20]): 31.57% | Activity (Rattus norvegicus [21]): Active | Activity (Rattus norvegicus [22]): 1.24 micrometer/day | Activity (Rattus norvegicus [23]): 7.36% | Activity (Rattus norvegicus [24]): Non-toxic | Activity (Rattus norvegicus [25]): Non-toxic | Activity (Rattus norvegicus [26]): 35.25 U/L | Activity (Rattus norvegicus [27]): Non-toxic | Activity (Rattus norvegicus [28]): 3.12 ×10⁹ /L

CCOC(=O)c1cc2ccc(N(CC)CC)cc2o1
Activity [1]: 44.6%

CCOC(=O)c1ccc2cc(C(=O)/C=C/c3ccccc3)sc2c1
Activity (Rattus norvegicus [2]): Non-toxic | Activity (Rattus norvegicus [3]): Non-toxic | Activity (Rattus norvegicus [4]): Active | Activity (Rattus norvegicus [5]): Non-toxic | Activity (Mus musculus [29]): Non-toxic | Activity (Rattus norvegicus [6]): Active | Activity (Rattus norvegicus [7]): 103.08 U/L | Activity (Rattus norvegicus [8]): Non-toxic | Activity (Rattus norvegicus [9]): 41.98% | Activity (Rattus norvegicus [10]): 43.43% | Activity (Rattus norvegicus [11]): Non-toxic | LD50 at 336 h [30]: > 500 mg/kg | Activity (Rattus norvegicus [12]): Non-toxic | Activity (Mus musculus [31]): Non-toxic | Activity (Rattus norvegicus [13]): Active | Activity (Rattus norvegicus [14]): Non-toxic | Activity (Rattus norvegicus [15]): 0.29 mmol/L | Activity (Rattus norvegicus [16]): 8.58% | Activity (Rattus norvegicus [17]): Non-toxic | Activity (Rattus norvegicus [18]): Non-toxic | Activity (Rattus norvegicus [19]): Non-toxic | Activity (Rattus norvegicus [20]): 25.2% | Activity (Rattus norvegicus [21]): Active | Activity (Rattus norvegicus [22]): 1.26 micrometer/day | Activity (Rattus norvegicus [23]): 6.98% | Activity (Rattus norvegicus [24]): Non-toxic | Activity [1]: 85.9% | Activity (Rattus norvegicus [25]): Non-toxic | Activity (Rattus norvegicus [26]): 27 U/L | Activity (Rattus norvegicus [27]): Non-toxic | Activity (Rattus norvegicus [28]): 2.83 ×10⁹ /L

CCOC(=O)c1ccc2cc(C(=O)/C=C/c3ccc(OC)c(OC)c3OC)sc2c1
Activity [1]: -13%

COc1ccc2oc(C(O)C[S+](C)[O-])cc2c1 (configuration not stated)
Activity [1]: 16.9%

CCOC(=O)c1cc2cc(OC)ccc2o1
Activity [1]: 64.1%

CCOC(=O)c1ccc2cc(C(=O)/C=C/c3ccc(OC)c(OC)c3)sc2c1
Activity [1]: 0.7%

C[S+]([O-])CC(O)c1cc2cc3c(cc2s1)OCO3 (configuration not stated)
Activity [1]: -9.3%

COc1cccc2oc(C(=O)C[S+](C)[O-])cc12 (configuration not stated)
Activity [1]: 19.6%

CCN(CC)c1ccc2cc(C(=O)C[S+](C)[O-])oc2c1 (configuration not stated)
Activity [1]: 10%
